Each structure is given as a SMILES string.

Results on one compound are retold here after patent publication US20250170065A1, “THERAPEUTIC COMPOUNDS, FORMULATIONS, AND USE THEREOF” (priority 2022, published 2025).

For data set [1] the following is noted: in vivo. Here is the method:
Particle size reduction for TTI-101 by micronization and nano-milling provided poor bioavailability (e.g., 10-20 times lower bioavailability than a solution of TTI-101). Hot melt extrusion (HME) was used and the resulting dispersions were evaluated using DSC miscibility, DSC extrudability and rheology studies. Polymer systems tried include: Soluplus; Soluplus+Kolliphor RH40; Soluplus+Vitamin E TPGS; and PVPVA64+Kolliphor RH40.

The next data set in a line: Solubility of TTI-101. The class given is physicochemical. The source says:
The compound of Formula (I) (also referred to as TTI-101) is highly insoluble (“brick dust”). […] Furthermore, the compound of Formula (I) has a crystalline structure with high crystal-lattice energy, contributing to rapid precipitation or crystallization of the compound from solution. Its low solubility and high crystallinity have contributed to various difficulties in preparing formulations that are suitable for administration in human subjects. Current formulations are liquid formulations delivered via capsules. For example, a formulation of the compound of formula (I) dissolved in 60:40 Labrasol®/PEG400 and encapsulated into a hard gelatin capsule (unit dose: 36 mg), while showing encouraging results in 3 dose cohorts, was prevented from advancing to a fourth patient cohort (25.6 mg/kg/day as 12.8 mg/kg twice daily (BID) doses) because of an unacceptably high pill burden. For example, a 70 kg subject in Cohort 4 would require […] per day split into BID doses. […]

On to `COc1ccc(S(=O)(=O)Nc2cc(-c3c(O)ccc4ccccc34)c(O)c3ccccc23)cc1` [TTI-101], for which the “bioavailability lower than a solution of TTI-101” value in data set [1] is listed as 10-20 times. For the same compound, in “Solubility of TTI-101”, the “solubility in aqueous solutions” value is given as “insoluble” and the “solubility in most solvents” value is “relatively low solubility”.
